Patent US11274090B2, “P300/CBP HAT inhibitors” (Constellation Pharmaceuticals, Inc., priority 2018, dated 2022)
pIC50: −log10 of the molar value.

These compounds were tested against p300 HAT domain (residues 1287-1666) (Homo sapiens (Human), UniProt Q09472) (assay: p300 HAT SPA assay (scintillation proximity assay, acetylation of biotinylated H3(1-21) peptide)). Conditions: average of at least 2 replicate titrations.
Type: biochemical
Protocol: In a typical experiment the p300 HAT inhibitory activity of the compounds described herein was determined in accordance with the following experimental method.
The expressed protein was purified by Ni2+ affinity, followed by anion exchange chromatography. Appropriate fractions were pooled and buffer exchanged into 20 mM Hepes pH 7.5, 150 mM NaCl, and 1 mM TCEP.
35 μL of the reaction volume was transferred to a 384-well streptavidin FlashPlate (PerkinElmer) using a Bravo liquid handler (Velocity 11) and incubated for 1.5 hr at RT. […] Data were analyzed in Genedata to determine inhibitor IC50 values.

Sequence of p300 HAT domain (residues 1287-1666) (Q09472 1287-1666): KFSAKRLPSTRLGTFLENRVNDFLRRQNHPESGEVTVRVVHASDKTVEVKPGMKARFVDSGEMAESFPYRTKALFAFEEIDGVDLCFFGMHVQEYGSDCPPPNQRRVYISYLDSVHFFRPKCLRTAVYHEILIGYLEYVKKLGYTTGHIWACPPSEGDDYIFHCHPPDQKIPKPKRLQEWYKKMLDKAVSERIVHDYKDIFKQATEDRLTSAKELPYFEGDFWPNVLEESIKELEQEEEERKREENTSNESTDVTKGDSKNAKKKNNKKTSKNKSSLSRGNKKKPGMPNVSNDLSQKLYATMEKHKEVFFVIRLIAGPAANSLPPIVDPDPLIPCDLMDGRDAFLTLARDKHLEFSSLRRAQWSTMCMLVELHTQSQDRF

Row | SMILES | pIC50
1 | CN1CCN(c2ccc(NC(=O)[C@H](NCCc3ccc(C#N)cc3)c3ccccc3)cc2)CC1 (single isomer, unassigned; isomer 2) [18 Isomer 2] | < 5.30
2 | Cc1cc(C#N)ccc1CCNC(C(=O)Nc1ccc(-c2cnn(C)c2)cn1)c1ccccc1 (single isomer, unassigned) [41 Isomer 1] | 7.99
3 | CO[C@H]1CCN(c2ccc(NC(=O)C(NCC(C)c3ccc(C#N)cc3)c3ccccc3)nc2)C1 (single isomer, unassigned) [93 Isomer 4] | < 5.70
4 | Cn1cc(-c2ccc(NC(=O)C(NCCc3ccc(C#N)cc3)c3ccccc3Cl)nc2)cn1 (single isomer, unassigned) [88 Isomer 1] | 7.18
5 | Cn1cc(-c2ccc(NC(=O)C(NCCc3ccc(C#N)cc3)c3cccc(C#N)c3)nc2)cn1 (single isomer, unassigned) [116 Isomer 2] | < 5.70
6 | Cc1cn(-c2ccc(NC(=O)[C@@H](NCCc3ccc(Cl)cc3)c3ccccc3)cc2)cn1 (single isomer, unassigned) [16 Isomer 2] | < 5.30
7 | C[C@H](CNC(C(=O)Nc1ccc(C2CC(=O)N(C)C2)cn1)c1ccccc1)c1ccc(C#N)cc1 (single isomer, unassigned) [109 Isomer 1] | < 5.70
8 | CC1C(=O)N(C)CCN1c1ccc(NC(=O)C(NC[C@@H](C)c2ccc(C#N)cc2)c2ccccc2)nc1 (single isomer, unassigned) [126 Isomer 4] | 7.66
9 | C[C@H](CNC(C(=O)Nc1ccc(-c2cnn(C)c(=O)c2)cn1)c1ccccc1)c1ccc(C#N)cc1 (single isomer, unassigned) [139 Isomer 2] | < 5.70
10 | CC1CN(c2ccc(NC(=O)C(NC[C@@H](C)c3ccc(C#N)cc3)c3ccccc3)nc2)CC(=O)N1C (single isomer, unassigned) [124 Isomer 2] | 6.11
11 | Cn1cc(-c2ccc(NC(=O)C(NCCc3ccc(C#N)cc3)c3ccc(C#N)cc3)nc2)cn1 (single isomer, unassigned) [119 Isomer 2] | 5.80
12 | N#Cc1ccc(CCNC(C(=O)Nc2ccc(N3CC4(COC4)C3)cn2)c2ccccc2)cc1 (single isomer, unassigned) [80 Isomer 2] | < 5.70
13 | Cc1ncc(-c2ccc(NC(=O)[C@H](NC[C@@H](C)c3ccc(C#N)cc3)c3ccccc3)nc2)cn1 (single isomer, unassigned; isomer 3) [6 Isomer 3] | < 5.70
14 | Cc1cc(C#N)nn1CCNC(C(=O)Nc1ccc(-c2cnn(C)c2)cn1)c1ccccc1 (single isomer, unassigned) [145 Isomer 1] | 6.11
15 | CC(CNC(C(=O)Nc1ccc(-c2cnn(C)c2)cn1)c1ccccc1)c1ccc(C#N)c(F)c1 (single isomer, unassigned) [91 Isomer 1] | 6.33
16 | Cc1cnc(-c2ccc(NC(=O)[C@@H](NCCc3ccc(Cl)cc3)c3ccccc3)cc2)[nH]1 (single isomer, unassigned) [9 Isomer 1] | < 5.30
17 | N#Cc1ccc(CCNC(C(=O)Nc2ccc(N3CCCC3)cn2)c2ccccc2)cc1 (single isomer, unassigned) [37 Isomer 2] | 5.43
18 | C[C@H](CNC(C(=O)Nc1ccc(-c2cnn(CC(=O)N(C)C)c2)cn1)c1cccc(F)c1)c1ccc(C#N)cc1 (single isomer, unassigned) [138 Isomer 1] | 6.36
19 | CCN(CC)C(=O)C1CCN(c2ccc(NC(=O)C(NCCc3ccc(C#N)cc3)c3ccccc3)nc2)CC1 (single isomer, unassigned) [64 Isomer 1] | < 5.70
20 | CC(CNC(C(=O)Nc1ccc(N2CCN(C)C(=O)C2)cn1)c1ccccc1)c1ccc(C#N)cc1 (single isomer, unassigned) [101 Isomer 4] | < 5.70
21 | Cn1cc(-c2ccc(NC(=O)[C@@H](NCCc3ccc(Cl)cc3)c3ccccc3)cc2)cn1 (single isomer, unassigned) [5 Isomer 2] | < 5.30
22 | Cn1cc(-c2ccc(NC(=O)C(NCC(c3ccc(C#N)cc3)C(F)(F)F)c3ccccc3)nc2)cn1 (single isomer, unassigned) [149 Isomer 3] | 6.19
23 | CN1CCN(c2ccc(NC(=O)C(NCCc3ccc(Cl)cc3)c3ccccc3)nc2)CC1 (single isomer, unassigned) [69 Isomer 2] | < 5.70
24 | Cn1cc(-c2ccc(NC(=O)C(NCCc3ccc(C#N)cc3)c3cccc(C(F)(F)F)c3)nc2)cn1 (single isomer, unassigned) [117 Isomer 2] | < 5.70

Continued, values first:

Row | pIC50 | SMILES
25 | < 5.70 | CC(CNC(C(=O)Nc1ccc(N2CCN(C)S2(=O)=O)cn1)c1ccccc1)c1ccc(C#N)cc1 (single isomer, unassigned) [108 Isomer 3]
26 | < 5.30 | N#Cc1ccc(CCNC(C(=O)Nc2ccn(C3CCOCC3)n2)c2ccccc2)cc1 (single isomer, unassigned) [30 Isomer 2]
27 | 6.68 | CC(CNC(C(=O)Nc1ccc(-c2cnn(C)c2)cn1)c1ccccc1)c1ccc(C#N)cc1F (single isomer, unassigned) [90 Isomer 1]
28 | < 5.70 | CC(CNC(C(=O)Nc1ccc(N2CCN(C)C(=O)C2)cn1)c1cnn(C)c1)c1ccc(C#N)cc1 (single isomer, unassigned) [136 Isomer 1]
29 | < 5.70 | CO[C@H]1CCN(c2ccc(NC(=O)C(NCC(C)c3ccc(C#N)cc3)c3ccccc3)nc2)C1 (single isomer, unassigned) [93 Isomer 2]
30 | 5.49 | CN1CCN(c2ccc(NC(=O)C(NCCc3ccc(C#N)cc3)c3ccccc3)cn2)CC1 (single isomer, unassigned) [36 Isomer 1]
31 | < 5.70 | CCCCCCc1ccc(C(NCCc2ccc(C#N)cc2)C(=O)Nc2ccc(-c3cnn(C)c3)cn2)cc1 (single isomer, unassigned) [121 racemic]
32 | 7.01 | Cn1cc(-c2ccc(NC(=O)C(NCCc3ccc(C#N)cc3)c3cccc(Cl)c3)nc2)cn1 (single isomer, unassigned) [79 Isomer 2]
33 | 6.86 | N#Cc1ccc(CCNC(C(=O)Nc2ccc(N3CCOCC3)cn2)c2ccccc2)cc1 (single isomer, unassigned) [81 Isomer 1]
34 | < 5.70 | Cc1ncc(C(C)CNC(C(=O)Nc2ccc(-c3cnn(C)c3)cn2)c2ccccc2)cn1 (single isomer, unassigned) [150 Isomer 3]
35 | < 5.30 | Cn1cc(-c2ccc(NC(=O)C(NCCc3ccc(F)cc3)c3ccccc3)nc2)cn1 (single isomer, unassigned) [58 Isomer 2]
36 | < 5.30 | Cn1cc(-c2ccc(NC(=O)C(NCCc3ccc(Cl)cc3)c3ccccc3)nc2)cn1 (single isomer, unassigned) [55 Isomer 2]
37 | 7.75 | Cc1nc(NC(=O)C(NCC(C)c2ccc(C#N)cc2)c2ccccc2)ccc1-c1cnn(C)c1 (single isomer, unassigned) [39 Isomer 3]
38 | 5.86 | CC(CNC(C(=O)Nc1ccc(-c2cn[nH]c2)cn1)c1ccccc1)c1ccc(C#N)cc1 (single isomer, unassigned) [104 Isomer 1]
39 | 6.84 | COC1CCN(c2ccc(NC(=O)C(NCCc3ccc(C#N)cc3)c3ccccc3)nc2)CC1 (single isomer, unassigned) [66 Isomer 1]
40 | < 5.30 | N#Cc1ccc(CCNC(C(=O)Nc2ccc(-c3cccnn3)cc2)c2ccccc2)cc1 (single isomer, unassigned) [12 Isomer 1]

Row | pIC50 | SMILES
41 | < 5.30 | N#Cc1ccc(CCNC(C(=O)Nc2ccc(N3CCCC3)nc2)c2ccccc2)cc1 (single isomer, unassigned) [35 Isomer 2]
42 | 5.99 | CC(CNC(C(=O)Nc1ccc(-c2cnn(C)n2)cn1)c1ccccc1)c1ccc(C(F)(F)F)cc1 (single isomer, unassigned) [99 Isomer 2]
43 | < 5.70 | CC1C(=O)N(C)CCN1c1ccc(NC(=O)C(NC[C@@H](C)c2ccc(C#N)cc2)c2ccccc2)nc1 (single isomer, unassigned) [126 Isomer 3]
44 | 6.21 | Cc1ncc(C(C)CNC(C(=O)Nc2ccc(-c3cnn(C)c3)cn2)c2ccccc2)cn1 (single isomer, unassigned) [150 Isomer 4]
45 | 7.71 | CC1CN(C)C(=O)CN1c1ccc(NC(=O)C(NC[C@@H](C)c2ccc(C#N)cc2)c2ccccc2)nc1 (single isomer, unassigned) [125 Isomer 4]
46 | < 5.70 | CC(CNC(C(=O)Nc1ccc(N2CCN(C)S2(=O)=O)cn1)c1ccccc1)c1ccc(C#N)cc1 (single isomer, unassigned) [108 Isomer 1]
47 | < 5.30 | CC(CNC(C(=O)Nc1ccc(-c2cnn(C)c2)cc1)c1ccccc1)c1ccc(C#N)cc1 (single isomer, unassigned) [82 Isomer 1]
48 | 5.71 | CC(CNC(C(=O)Nc1ccc(-c2cnn(C(C)(C)C)c2)cn1)c1ccccc1)c1ccc(C#N)cc1 (single isomer, unassigned) [54 Isomer 4]
49 | < 5.70 | Cc1ncc(C(C)CNC(C(=O)Nc2ccc(-c3cnn(C)c3)cn2)c2ccccc2)cn1 (single isomer, unassigned) [150 Isomer 1]
50 | 6.22 | CO[C@@H]1CCN(c2ccc(NC(=O)C(NCC(C)c3ccc(C#N)cc3)c3ccccc3)nc2)C1 (single isomer, unassigned) [92 Isomer 3]
51 | 6.71 | Cc1ncn(-c2ccc(NC(=O)C(NCCc3ccc(C#N)cc3)c3ccccc3)nc2)n1 (single isomer, unassigned) [73 Isomer 2]
52 | 6.11 | C[C@H](CNC(C(=O)Nc1ccc(N2CCN(C)C(=O)C2)cn1)c1cccc(F)c1)c1ccc(C#N)cc1 (single isomer, unassigned) [137 Isomer 1]
53 | < 5.30 | Cn1cc(-c2ccc3c(c2)CCCN3C(=O)[C@@H](NCCc2ccc(C#N)cc2)c2ccccc2)cn1 (single isomer, unassigned) [151 Isomer 1]
54 | < 5.30 | CN1CCN(c2ccc(NC(=O)C(NCCc3ccc(C#N)cc3)c3ccccc3)cn2)CC1 (single isomer, unassigned) [36 Isomer 2]
55 | 7.68 | CC1C(=O)N(C)CCN1c1ccc(NC(=O)C(NC[C@@H](C)c2ccc(C#N)cc2)c2ccccc2)nc1 (single isomer, unassigned) [126 Isomer 1]
